Test results: patent EP1105728B1, “MODULATING MULTIPLE LINEAGE KINASE PROTEINS” (CEPHALON, INC., priority 1998, dated 2000)
Like-named read-outs stand apart in the source and are kept apart here. Starred links: 1 amine or outer side, 2 acyl side, 3 side chain; linkers in the order of their positions; H or OH if unused. Positions of bridges follow the written chain, without caps; N, C: chain ends. Non-standard residues stand in square brackets, D forms with d. Residues, ends and D or L forms follow the SMILES beside them. Chains are numbered I, II in the order given. Actinocin(9to1) = Cc1c2oc3c(C)ccc(C(=O)[*:1])c3nc-2c(C(=O)[*:2])c(N)c1=O; NMeV = CN[C@H](C(=O)O)C(C)C; Sar = CNCC(=O)O

Experiments:
TNF-α = experiment: Induction of TNF-α by LPS in THP-1 cells (ELISA); assay type: cell-based; settings: for TNF-α in the medium: inhibitor 30 min prior to LPS, medium collected 3 hr after LPS; for IC50: Homo sapiens, THP-1, LPS 2 µg/ml, serum-free medium, read-out: THP-1 Cells TNF-α IC50
Description: THP-1 cells were grown in RPMI 1640 medium supplemented with 10% fetal bovine serum. LPS (E.coli serotype 0111.B4, TCA extracted) was purchased from Sigma and dissolved in PBS. ELISA kits for assaying IL-1 and TNF-α were purchased from Boerhinger-Mannheim and assays on THP-1 culture medium were performed as directed by the manufacturer. Standard curves according to directions were obtained with each assay.
Experiments were performed in 12 well culture plates with either 1 or 2 ml of THP-1 cells at 4 X 10^5 cells/ml. IL-1 and TNF-α were induced by the addition of LPS to the culture medium and the medium collected at various times thereafter for cytokine assay. Cells were removed by centrifugation and the supernatants frozen at -70°C until assay. To minimize costs experiments were performed in duplicate cultures and the duplicate supernatants were pooled after centrifugation. Each pooled supernatant was assayed in duplicate. Stock solutions of indolo- and fused pyrrolocarbazoles in 100% DMSO were diluted to the desired concentrations in either medium containing 10% fetal bovine serum or in medium containing 0.5 mg/ml BSA. Unless otherwise stated, compounds were added to the THP-1 cells 1 hr prior to the addition of LPS.

MKK4 = experiment: MPTP model: phosphorylated MKK4 in the substantia nigra (immunoblot, ELISA); assay type: in vivo, mice; settings: pretreatment; Compound III-3 1 mg/kg (Fig. 22c)
Description: MPTP was administered at a dose (40 mg/kg) that produces loss of striatal dopaminergic terminals and cell bodies in the substantia nigra. Tyrosine hydroxylase was used as a marker for dopamenergic nerve terminals in the substantia nigra. […] Since Compound III-3 is a known inhibitor of MLK3, activation of a downstream substrate of MLK3 was measured in MPTP- treated mice. Levels of phosphorylated MKK4 were measured using a phospho-MKK4 specific antibody (New England Biolabs, Beverly, MA) that recognizes the monophosphorylated form of MKK4 by either immunoblot (Fig. 22b) or ELISA (Fig. 22c). MPTP administration elevated levels of phosphorylated MKK4 in the substantia nigra by up to 5 fold over control levels (Fig. 22b). Peak elevations occurred 4 hrs after administration ofMPTP and coincided with peak CNS levels of MPP^+.

MLK-3 = biological target: T1, MLK-3 (Homo sapiens, UniProt Q16584); experiment: JNK activity (immunoprecipitation/kinase assay) in Cos7 cells overexpressing MLK-3 and HA-JNK1; assay type: cell-based
T1 construct: A full length cDNA of human MLK-3, MLK-2, or mouse DLK; expressed in transfected cells; host or cells: Cos7
Description: Cos7 cells were plated at 80% confluency and transfected with 2 ug each of cDNA constructs using lipofectamine as recommended by the provider (Gibco BRL, Gaithersburg, MD). A full length cDNA of human MLK-3, MLK-2, or mouse DLK or a partial human MLK-1 as described above, and a full length Hemagluttinin A-tagged human JNK1, kindly provided by J. Silvio Gutkind (NIH, Bethesda, MD), were subcloned into the pcDNA3 vector (Invitrogen, San Diego, CA). […] JNK activity from the lysate was assayed by an immunoprecipitation/kinase assay as described below.
Lysate from Cos 7 cells was measured for protein concentration using the Micro BCA kit from Pierce (Rockford, IL) and equal amounts of protein were immunoprecipitated with the HA antibody for 1 hr at 4°C. Immunoprecipitates were pelleted by centrifugation in a microfuge centrifuge for 20 sec, resuspended in Triton buffer, washed by centrifugation 2 more times, followed by a final wash in Kinase buffer (20 mM Hepes pH 7.4,20 mM MgCl2, 2 mM dithiothreitol, 0.1 mM sodium vanadate). The immunoprecipitate was resuspended in kinase buffer containing 1 µM ATP and 5 µCi [γ-^32P]ATP and substrate (1 µg/sample of AP-1 ) and incubated for 15 min at 30°C. […] Samples were heated to 80°C for 5 min and loaded onto 10% SDS-polyacrylamide gels. Proteins were separated by electrophoresis. The gel was dried and quantitation of radioactivity in the AP-1 substrate was performed on a Molecular Dynamics Phosphorimager (Sunnyvale, Ca.).
To determine whether inhibition of the JNK pathway regulated by these kinases correlated with neurotrophic compounds, we evaluated the effect of compounds on JNK activity in Cos7 cells overexpressing HA-JNK and MLK3. After a 48 hr transfection period, the cells were incubated with compounds at 500 nM for 2hr followed by cellular lysis. Lysate was immunoprecipitated and kinase activity measured as previously described. […]

JNK = JNK activity immunoprecipitated from THP-1 cells; assay type: cell-based; settings: Homo sapiens, read-out: THP-1 Cells JNK % inh. 500 nM
Description: Assays for JNK activity were performed after immunoprecipitating the JNK protein from an extract of lysed THP-1 cells. Pelleted THP-1 cells were lysed on ice for 15 min in 500 µl of Frac buffer (10 mM Tris-Hcl, pH 7.5,50 mM NaCl, 30 µM sodium pyrophosphate, 1 mg/ml BSA, 1% Triton-X-100). The extract was centrifuged for 10 min at 14K and 5 µl of JNK antibody (Santa Cruz) was added to the supernatant. The extract was rotated for 60 min at 4°C, 75 µl of washed protein A Sepharose (20% w/v in Frac) added and the extract rotated another 30 min to bind the antibody complex to the protein A Sepharose. The protein A Sepharose was washed twice with Frac buffer, once with 20 mM Hepes, pH 7.6, 20 mM MgCl2, 2 mM DTT, then incubated for 15 min at 30° C in 30 µl of kinase buffer (20 mM hepes, 20 mM MgCl2, 2 MM DTT, 1 µg recombinant c-jun, and 2 µM ATP-γ-^32P, 2 µCi. The reaction was terminated by the addition of 10 µl of 4X SDS gel loading buffer, heated for 3 min at 80° C, and the proteins were analyzed on a 10% SDS gel. The gel was dried, exposed to a Phosphorimager plate, and the radioactive bands were analyzed on a Phosphorimager.

DLK = biological target: T2, DLK (Mus musculus, UniProt Q60700); experiment: JNK activity (immunoprecipitation/kinase assay) in Cos7 cells overexpressing DLK and HA-JNK1; assay type: cell-based; settings: COS-7, 500 nM for 2 hr; replicate values in one cell; read-out: Cos-7 Cells DLK % JNK Inhib. @ 500nM
T2 construct: A full length cDNA of human MLK-3, MLK-2, or mouse DLK; expressed in transfected cells; host or cells: Cos7
T2 sequence (Q60700 1-888): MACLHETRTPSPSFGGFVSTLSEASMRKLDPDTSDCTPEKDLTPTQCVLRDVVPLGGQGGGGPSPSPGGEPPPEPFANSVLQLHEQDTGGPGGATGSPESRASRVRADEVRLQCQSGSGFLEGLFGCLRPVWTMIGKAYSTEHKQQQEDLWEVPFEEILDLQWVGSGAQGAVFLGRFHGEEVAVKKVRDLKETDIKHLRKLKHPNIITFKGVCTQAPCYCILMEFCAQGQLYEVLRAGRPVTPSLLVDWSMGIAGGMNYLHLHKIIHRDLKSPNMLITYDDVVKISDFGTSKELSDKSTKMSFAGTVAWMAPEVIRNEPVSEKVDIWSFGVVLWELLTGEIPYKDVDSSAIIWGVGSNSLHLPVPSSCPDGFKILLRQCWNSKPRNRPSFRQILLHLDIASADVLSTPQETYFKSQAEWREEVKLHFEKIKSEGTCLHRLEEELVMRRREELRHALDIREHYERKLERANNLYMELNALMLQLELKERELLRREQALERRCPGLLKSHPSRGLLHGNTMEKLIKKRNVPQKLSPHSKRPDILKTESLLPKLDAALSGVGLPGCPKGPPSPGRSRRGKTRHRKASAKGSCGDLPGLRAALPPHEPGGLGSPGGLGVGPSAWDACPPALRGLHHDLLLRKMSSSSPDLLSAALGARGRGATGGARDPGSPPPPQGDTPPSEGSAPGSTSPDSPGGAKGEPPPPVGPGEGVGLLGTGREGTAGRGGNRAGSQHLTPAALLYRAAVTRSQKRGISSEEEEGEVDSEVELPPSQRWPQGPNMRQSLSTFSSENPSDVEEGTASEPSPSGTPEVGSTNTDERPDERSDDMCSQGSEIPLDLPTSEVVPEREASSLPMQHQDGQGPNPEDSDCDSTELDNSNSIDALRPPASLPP
Description: Cos7 cells were plated at 80% confluency and transfected with 2 ug each of cDNA constructs using lipofectamine as recommended by the provider (Gibco BRL, Gaithersburg, MD). A full length cDNA of human MLK-3, MLK-2, or mouse DLK or a partial human MLK-1 as described above, and a full length Hemagluttinin A-tagged human JNK1, kindly provided by J. Silvio Gutkind (NIH, Bethesda, MD), were subcloned into the pcDNA3 vector (Invitrogen, San Diego, CA). After a 48 hr transfection, the cells were treated with 0.025% DMSO or 500 nM of the indicated compounds for 2 hr followed by lysis in 0.4 ml Triton buffer (1% Triton X-100, 50 mM sodium chloride, 10 mM Tris (pH 7.6), 0.1 % bovine serum albumin, 30 uM sodium pyrophosphate, 50 mM sodium fluoride, 20 ug/ml aprotinin, 1 mM phenylmethylsulfonylfluoride, 1 mM sodium vanadate). JNK activity from the lysate was assayed by an immunoprecipitation/kinase assay as described below.
Lysate from Cos 7 cells was measured for protein concentration using the Micro BCA kit from Pierce (Rockford, IL) and equal amounts of protein were immunoprecipitated with the HA antibody for 1 hr at 4°C. […] The gel was dried and quantitation of radioactivity in the AP-1 substrate was performed on a Molecular Dynamics Phosphorimager (Sunnyvale, Ca.). […]

[1] = COS-7, 500 nM for 2hr, control is JNK activity in the presence of DMSO, read-out: % Inhibition of JNK Activity (average) MLK3 in Cos7 cells
[2] = COS-7, read-out: Overexpressed MLK3 in Cos 7 Cells JNK % inh. 500 nM

T1 sequence (Q16584 whole entry): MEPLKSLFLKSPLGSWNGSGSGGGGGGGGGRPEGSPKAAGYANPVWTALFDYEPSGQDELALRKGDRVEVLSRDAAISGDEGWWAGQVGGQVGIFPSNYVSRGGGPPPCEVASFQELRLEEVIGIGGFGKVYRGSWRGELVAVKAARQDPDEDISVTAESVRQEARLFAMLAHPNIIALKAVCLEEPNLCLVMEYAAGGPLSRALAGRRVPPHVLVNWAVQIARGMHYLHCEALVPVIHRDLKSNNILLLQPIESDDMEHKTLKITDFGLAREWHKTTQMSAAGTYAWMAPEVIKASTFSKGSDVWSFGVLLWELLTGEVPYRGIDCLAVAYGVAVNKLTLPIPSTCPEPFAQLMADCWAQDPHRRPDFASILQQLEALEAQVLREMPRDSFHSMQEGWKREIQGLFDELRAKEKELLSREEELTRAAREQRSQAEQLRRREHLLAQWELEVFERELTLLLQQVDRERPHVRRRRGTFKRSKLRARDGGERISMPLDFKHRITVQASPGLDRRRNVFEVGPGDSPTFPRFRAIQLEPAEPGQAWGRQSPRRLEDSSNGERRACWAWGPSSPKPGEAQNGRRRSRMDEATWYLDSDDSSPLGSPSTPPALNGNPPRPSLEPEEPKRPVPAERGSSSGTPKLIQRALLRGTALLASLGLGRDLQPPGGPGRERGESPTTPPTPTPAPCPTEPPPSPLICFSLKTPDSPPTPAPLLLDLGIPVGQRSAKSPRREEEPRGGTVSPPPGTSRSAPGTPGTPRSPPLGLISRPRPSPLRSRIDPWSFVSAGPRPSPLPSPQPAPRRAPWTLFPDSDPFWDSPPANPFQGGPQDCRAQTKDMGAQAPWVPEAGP

Row | Compound | inhibition at 0.5 µM (MLK-3; [1]) [%] | inhibition at 0.5 µM (MLK-3; [2]) [%] | inhibition at 0.5 µM (JNK) [%] | IC50 (TNF-α) [nM] | other results
1 | Cc1c2oc3c(C)ccc(C(=O)N[C@@H]4C(=O)N[C@H](C(C)C)C(=O)N5CCC[C@H]5C(=O)N(C)CC(=O)N(C)[C@@H](C(C)C)C(=O)O[C@@H]4C)c3nc-2c(C(=O)N[C@@H]2C(=O)N[C@H](C(C)C)C(=O)N3CCC[C@H]3C(=O)N(C)CC(=O)N(C)[C@@H](C(C)C)C(=O)O[C@@H]2C)c(N)c1=O [Actinomycin D, reference compound] (I: T[dV]P[Sar][NMeV] / II: T[dV]P[Sar][NMeV]; ester I:1-I:C, II:1-II:C; linker I:N-II:N via Actinocin(9to1)) | – | – | – | – | TNF-α in the medium (TNF-α): no TNF-α was found
2 | C#CCN(C)[C@H](C)Cc1ccccc1 [Compound 1-deprenyl, 1-deprenyl, reference compound] | – | – | – | – | MPTP-mediated MKK4 phosphorylation (MKK4): attenuated
3 | CCNC(=O)Nc1ccc2c(c1)c1c3c(c4c5cc(CCc6ccccn6)ccc5n5c4c1n2C1CC(O)(C(=O)OC)C5(C)O1)CNC3=O (centres unmarked) [III-1] | 84 | 83.8 | 93.5 | 49.5 | –
4 | CCOCOCc1ccc2c(c1)c1c3c(c4c5cc(COCOCC)ccc5n5c4c1n2C1CC(O)(C(=O)OC)C5(C)O1)CNC3=O (centres unmarked) [III-2] | 96 | – | – | – | –
5 | CCCCCOC(=O)C1(O)CC2OC1(C)n1c3ccccc3c3c4c(c5c6ccccc6n2c5c31)C(=O)NC4 (centres unmarked) [III-4] | 66 | 66 | 81 | 462 | –
6 | COC(=O)C1(O)CC2OC1(C)n1c3ccccc3c3c4c(c5c6ccccc6n2c5c31)C(=O)NC4 (centres unmarked) [III-9] | 98.5 | – | – | – | –
7 | COC(=O)C1(O)CC2OC1(C)n1c3ccc(CCSC)cc3c3c4c(c5c6cc(CCSC)ccc6n2c5c31)C(=O)NC4 (centres unmarked) [III-10] | 78 | 78 | 48 | 4300 | –
8 | COC(=O)C1(OC)CC2OC1(C)n1c3ccccc3c3c4c(c5c6ccccc6n2c5c31)C(=O)NC4 (centres unmarked) [III-11] | 92.5 | – | 51 | 686 | inhibition at 0.5 µM (MLK-3; COS-7, 500 nM, read-out: Overexpressed MLK3 in Cos 7 Cells JNK % inh. 500 nM): 92.5%
9 | COC(=O)C1(O)CC2OC1(C)n1c3ccccc3c3c4c(c5c6ccccc6n2c5c31)C(=O)NC4 (centres unmarked) [III^1] | – | – | – | – | inhibition at 0.5 µM (MLK-3; COS-7, 500 nM for 2 hr, replicate values in one cell, read-out: Cos-7 Cells MLK-3 % JNK Inhib. @ 500nM): 99%; inhibition at 0.5 µM (DLK): 63%
10 | C[C@@H]1C[C@@H]([C@H](O)CC2CC(=O)NC(=O)C2)C(=O)[C@@H](C)C1 [cycloheximide, reference compound] | – | – | – | – | TNF-α in the medium (TNF-α): no TNF-α was found
